The source of these data is ChEMBL document CHEMBL1909046, “DrugMatrix in vitro pharmacology data”.

Structures are written as SMILES.

The target in one data set is T1, Progesterone receptor (Bos taurus, UniProt Q690N0).
T1 sequence (Q690N0 whole entry): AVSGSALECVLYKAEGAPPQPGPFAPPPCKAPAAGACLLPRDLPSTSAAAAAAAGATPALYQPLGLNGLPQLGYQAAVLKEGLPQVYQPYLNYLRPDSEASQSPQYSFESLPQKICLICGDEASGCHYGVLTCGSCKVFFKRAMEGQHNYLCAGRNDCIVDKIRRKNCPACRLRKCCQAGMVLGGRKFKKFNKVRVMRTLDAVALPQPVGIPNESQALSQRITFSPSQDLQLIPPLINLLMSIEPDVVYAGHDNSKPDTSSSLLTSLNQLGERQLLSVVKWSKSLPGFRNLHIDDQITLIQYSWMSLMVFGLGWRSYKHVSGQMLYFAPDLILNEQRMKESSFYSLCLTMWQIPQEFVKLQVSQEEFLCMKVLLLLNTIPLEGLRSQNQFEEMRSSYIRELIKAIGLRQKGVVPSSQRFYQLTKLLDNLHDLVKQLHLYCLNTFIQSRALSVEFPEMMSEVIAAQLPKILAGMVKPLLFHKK
As to the kind of experiment: DRUGMATRIX: Progesterone radioligand binding (ligand: [3H] R-5020). Particulars: Not Active = under 50% inhibition at 10 µM. In kind it is tissue-based, Uterus.

The target of another data set is D(1A) dopamine receptor (Homo sapiens, UniProt P21728). As to the kind of experiment: DRUGMATRIX: Dopamine D1 radioligand binding (ligand: [3H] SCH-23390). The data set is classed as cell membranes, CHO, Membrane. Particulars: cho; Not Active = under 50% inhibition at 10 µM.
A further data set concerns the target T2, Glucocorticoid receptor (Homo sapiens, UniProt P04150). Also: in other assays of this panel Not Active means under 50% inhibition at 10 µM.
T2 sequence (P04150 whole entry): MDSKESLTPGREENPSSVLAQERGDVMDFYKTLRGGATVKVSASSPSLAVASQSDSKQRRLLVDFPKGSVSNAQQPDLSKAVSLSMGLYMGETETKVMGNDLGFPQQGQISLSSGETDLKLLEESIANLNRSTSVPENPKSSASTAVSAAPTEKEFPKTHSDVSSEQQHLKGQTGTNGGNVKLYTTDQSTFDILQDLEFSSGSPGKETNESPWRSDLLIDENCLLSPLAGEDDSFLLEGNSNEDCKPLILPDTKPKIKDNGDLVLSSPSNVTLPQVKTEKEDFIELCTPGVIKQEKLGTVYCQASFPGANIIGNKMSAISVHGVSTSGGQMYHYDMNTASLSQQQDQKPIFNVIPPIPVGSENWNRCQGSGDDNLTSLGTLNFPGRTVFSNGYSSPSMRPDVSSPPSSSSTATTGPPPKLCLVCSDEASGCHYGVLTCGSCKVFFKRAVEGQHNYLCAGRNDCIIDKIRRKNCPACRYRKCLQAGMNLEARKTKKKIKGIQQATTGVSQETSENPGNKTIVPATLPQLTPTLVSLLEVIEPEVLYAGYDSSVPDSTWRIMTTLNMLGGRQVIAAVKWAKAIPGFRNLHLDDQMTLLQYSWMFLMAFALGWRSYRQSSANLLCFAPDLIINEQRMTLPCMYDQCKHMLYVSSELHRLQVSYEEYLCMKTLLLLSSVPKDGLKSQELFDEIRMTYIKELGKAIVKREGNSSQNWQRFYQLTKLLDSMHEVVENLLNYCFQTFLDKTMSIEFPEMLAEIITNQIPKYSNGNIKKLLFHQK
Particulars: hela s3.

Data set [1] deals with 5-hydroxytryptamine receptor 2B (Homo sapiens, UniProt P41595). The data set is classed as cell membranes, CHO-K1, Membrane. Particulars: cho-k1.
Another data set addresses Cytochrome P450 2C19 (Homo sapiens, UniProt P33261). Particulars: bti-tn-5b1-4.
The target in the next data set is Cytochrome P450 2D6 (Homo sapiens, UniProt P10635). Particulars: bti-tn-5b1-4. Also: in other assays of this panel Not Active means under 50% inhibition at 10 µM.
The target in another data set is T3, Cytochrome P450 1A2 (Homo sapiens, UniProt P05177). Also: in other assays of this panel Not Active means under 50% inhibition at 10 µM.
T3 sequence (P05177 whole entry): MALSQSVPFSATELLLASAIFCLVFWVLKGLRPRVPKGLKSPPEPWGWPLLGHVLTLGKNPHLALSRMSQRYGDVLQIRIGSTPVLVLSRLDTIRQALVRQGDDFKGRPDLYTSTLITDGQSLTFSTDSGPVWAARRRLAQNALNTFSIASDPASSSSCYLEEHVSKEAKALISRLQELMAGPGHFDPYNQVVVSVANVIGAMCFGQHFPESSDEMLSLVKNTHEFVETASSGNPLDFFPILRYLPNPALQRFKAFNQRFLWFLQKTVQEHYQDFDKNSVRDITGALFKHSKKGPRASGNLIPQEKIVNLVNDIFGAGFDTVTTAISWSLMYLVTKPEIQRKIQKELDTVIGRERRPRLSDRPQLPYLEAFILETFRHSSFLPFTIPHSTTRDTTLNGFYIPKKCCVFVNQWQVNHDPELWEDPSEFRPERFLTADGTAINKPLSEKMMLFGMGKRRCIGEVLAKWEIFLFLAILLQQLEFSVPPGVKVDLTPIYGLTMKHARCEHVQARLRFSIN
Particulars: bti-tn-5b1-4.

Another data set has as its target Cytochrome P450 3A4 (Homo sapiens, UniProt P08684). Particulars: bti-tn-5b1-4. Also: in other assays of this panel Not Active means under 50% inhibition at 10 µM.

Cytochrome P450 2D6, sequence (P10635 whole entry): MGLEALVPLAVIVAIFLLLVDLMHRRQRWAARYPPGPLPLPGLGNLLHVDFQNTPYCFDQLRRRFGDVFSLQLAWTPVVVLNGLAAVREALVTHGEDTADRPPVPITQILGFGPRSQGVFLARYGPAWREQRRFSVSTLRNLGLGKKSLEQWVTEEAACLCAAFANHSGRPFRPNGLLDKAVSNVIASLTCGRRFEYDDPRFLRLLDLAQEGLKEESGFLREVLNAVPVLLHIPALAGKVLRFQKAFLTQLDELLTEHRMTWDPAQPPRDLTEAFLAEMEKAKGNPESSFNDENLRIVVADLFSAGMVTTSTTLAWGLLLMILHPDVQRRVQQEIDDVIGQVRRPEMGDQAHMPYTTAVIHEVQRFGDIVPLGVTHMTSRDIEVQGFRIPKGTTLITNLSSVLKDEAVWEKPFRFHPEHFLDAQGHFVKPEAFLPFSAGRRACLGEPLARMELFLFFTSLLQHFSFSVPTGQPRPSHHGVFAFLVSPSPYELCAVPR
Cytochrome P450 2C19, sequence (P33261 whole entry): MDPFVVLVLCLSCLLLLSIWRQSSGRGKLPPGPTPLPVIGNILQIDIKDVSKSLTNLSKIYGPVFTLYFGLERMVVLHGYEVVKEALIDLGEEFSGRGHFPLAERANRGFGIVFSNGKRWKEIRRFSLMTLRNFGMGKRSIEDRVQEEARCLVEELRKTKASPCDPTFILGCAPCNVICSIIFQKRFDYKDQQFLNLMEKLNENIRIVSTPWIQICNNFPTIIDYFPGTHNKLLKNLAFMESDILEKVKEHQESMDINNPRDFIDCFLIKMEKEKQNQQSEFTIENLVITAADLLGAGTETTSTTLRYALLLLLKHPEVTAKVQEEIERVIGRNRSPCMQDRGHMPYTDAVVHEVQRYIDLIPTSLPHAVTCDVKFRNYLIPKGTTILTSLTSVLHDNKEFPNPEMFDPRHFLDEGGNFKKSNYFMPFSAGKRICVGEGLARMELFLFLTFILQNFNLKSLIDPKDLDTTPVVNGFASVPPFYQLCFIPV
Cytochrome P450 3A4, sequence (P08684 whole entry): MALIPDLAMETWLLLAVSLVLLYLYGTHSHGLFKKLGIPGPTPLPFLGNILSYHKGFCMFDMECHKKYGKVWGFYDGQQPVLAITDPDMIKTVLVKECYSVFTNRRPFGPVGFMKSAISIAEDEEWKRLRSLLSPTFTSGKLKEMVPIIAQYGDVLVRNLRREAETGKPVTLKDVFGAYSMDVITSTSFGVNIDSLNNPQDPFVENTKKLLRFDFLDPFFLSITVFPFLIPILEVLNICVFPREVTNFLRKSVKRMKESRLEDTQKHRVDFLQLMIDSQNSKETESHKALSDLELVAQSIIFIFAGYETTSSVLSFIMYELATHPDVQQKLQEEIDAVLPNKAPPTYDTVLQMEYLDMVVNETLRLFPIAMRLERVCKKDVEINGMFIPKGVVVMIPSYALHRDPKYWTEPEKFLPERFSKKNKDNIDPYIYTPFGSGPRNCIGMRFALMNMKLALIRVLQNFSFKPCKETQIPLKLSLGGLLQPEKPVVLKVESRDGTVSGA
5-hydroxytryptamine receptor 2B, sequence (P41595 whole entry): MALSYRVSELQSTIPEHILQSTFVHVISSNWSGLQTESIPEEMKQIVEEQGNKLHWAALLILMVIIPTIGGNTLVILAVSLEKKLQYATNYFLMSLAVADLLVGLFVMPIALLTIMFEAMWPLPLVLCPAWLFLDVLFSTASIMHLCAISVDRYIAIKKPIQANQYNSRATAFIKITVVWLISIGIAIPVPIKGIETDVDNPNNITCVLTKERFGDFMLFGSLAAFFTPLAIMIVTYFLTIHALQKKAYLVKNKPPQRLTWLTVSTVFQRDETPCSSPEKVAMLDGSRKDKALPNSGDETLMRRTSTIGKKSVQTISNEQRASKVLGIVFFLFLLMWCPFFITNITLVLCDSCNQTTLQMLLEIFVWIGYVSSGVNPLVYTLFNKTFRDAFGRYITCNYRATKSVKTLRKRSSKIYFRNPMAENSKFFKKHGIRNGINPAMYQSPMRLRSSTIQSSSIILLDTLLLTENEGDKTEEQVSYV
D(1A) dopamine receptor, sequence (P21728 whole entry): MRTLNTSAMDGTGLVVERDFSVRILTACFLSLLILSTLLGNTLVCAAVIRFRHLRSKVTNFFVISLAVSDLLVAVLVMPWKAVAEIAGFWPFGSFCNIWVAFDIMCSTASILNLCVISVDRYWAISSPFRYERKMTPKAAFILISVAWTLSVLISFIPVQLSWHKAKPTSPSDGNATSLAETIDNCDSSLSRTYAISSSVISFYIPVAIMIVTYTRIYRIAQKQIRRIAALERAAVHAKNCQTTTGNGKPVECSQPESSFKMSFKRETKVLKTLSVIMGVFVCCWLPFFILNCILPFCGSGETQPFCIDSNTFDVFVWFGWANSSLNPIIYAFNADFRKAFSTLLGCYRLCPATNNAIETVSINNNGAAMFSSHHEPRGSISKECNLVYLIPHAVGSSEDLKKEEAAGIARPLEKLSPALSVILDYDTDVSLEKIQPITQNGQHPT

Usually IC50 stands for the concentration that gives 50% inhibition. By Ki is commonly meant the equilibrium dissociation constant of an inhibitor or competing ligand from its target. For the compound `C[C@]12CCC(=O)C[C@@H]1CC[C@@H]1[C@@H]2CC[C@]2(C)[C@@H](O)CC[C@@H]12` [STANOLONE], the half-inhibitory concentration (IC50) on Progesterone receptor (read-out: IC50) is 1.25 µM; at D(1A) dopamine receptor, “Not Active”; against Glucocorticoid receptor, “Not Active”; in data set [1] it was “Not Active”; on Cytochrome P450 2C19, “Not Active”; against Cytochrome P450 2D6 it was “Not Active”. Also, the IC50 result against Cytochrome P450 1A2 and against Cytochrome P450 3A4 was “Not Active” in each case. Further, the Ki is 0.163 µM on Progesterone receptor (read-out: Ki); “Not Active” at Cytochrome P450 2C19; “Not Active” on Cytochrome P450 2D6; “Not Active” on Cytochrome P450 1A2; “Not Active” at Cytochrome P450 3A4.
Regarding `CC(C)(C)NC[C@H](O)COc1cccc2c1CCCC2=O` [LEVOBUNOLOL], the half-maximal inhibitory concentration (IC50) entry (at Progesterone receptor; on D(1A) dopamine receptor; on Glucocorticoid receptor; in data set [1]; on Cytochrome P450 2C19; against Cytochrome P450 2D6) was “Not Active” in each case. Further, the IC50 entry against Cytochrome P450 1A2 and against Cytochrome P450 3A4 was “Not Active” in each case. The inhibition constant Ki entry on Cytochrome P450 2C19, on Cytochrome P450 2D6, at Cytochrome P450 1A2 and at Cytochrome P450 3A4 was “Not Active” each time.
Turning to `CCN1CCCC1CNC(=O)c1cc(S(N)(=O)=O)ccc1OC` (stereo not drawn) [SULPIRIDE], the IC50 entry (on Progesterone receptor; at D(1A) dopamine receptor; against Glucocorticoid receptor; in data set [1]; against Cytochrome P450 2C19; on Cytochrome P450 2D6) was “Not Active” each time. The IC50 result against Cytochrome P450 1A2 and against Cytochrome P450 3A4 was “Not Active” in each case. The inhibition constant Ki result at Cytochrome P450 2C19, at Cytochrome P450 2D6, at Cytochrome P450 1A2 and on Cytochrome P450 3A4 was “Not Active” in each case.
For the compound `C[N+]1(C)[C@@H]2C[C@@H](OC(=O)[C@H](CO)c3ccccc3)C[C@H]1[C@@H]1O[C@@H]12.[Br-]` [METHSCOPOLAMINE BROMIDE], the IC50 entry (at Progesterone receptor; at D(1A) dopamine receptor; against Glucocorticoid receptor; in data set [1]; on Cytochrome P450 2C19; against Cytochrome P450 2D6) was “Not Active” throughout. Also, the IC50 result at Cytochrome P450 1A2 and at Cytochrome P450 3A4 was “Not Active” each time. The inhibition constant (Ki) entry at Cytochrome P450 2C19, at Cytochrome P450 2D6, at Cytochrome P450 1A2 and at Cytochrome P450 3A4 was “Not Active” in each case.
In the case of `Cc1ccnc(NS(=O)(=O)c2ccc(N)cc2)n1` [SULFAMERAZINE], the IC50 result (on Progesterone receptor; at D(1A) dopamine receptor; at Glucocorticoid receptor; in data set [1]; against Cytochrome P450 2C19; at Cytochrome P450 2D6) was “Not Active” in each case. Besides, the IC50 result at Cytochrome P450 1A2 and on Cytochrome P450 3A4 was “Not Active” in each case. For the same compound, the inhibition constant Ki entry on Cytochrome P450 2C19, on Cytochrome P450 2D6, at Cytochrome P450 1A2 and at Cytochrome P450 3A4 was “Not Active” each time.
Turning to `Cc1cnc(NC(=O)C2=C(O)c3ccccc3S(=O)(=O)N2C)s1` [MELOXICAM], the concentration for half-maximal inhibition (IC50) entry (at Progesterone receptor; at D(1A) dopamine receptor; at Glucocorticoid receptor; in data set [1]; against Cytochrome P450 2C19; on Cytochrome P450 2D6) was “Not Active” throughout. Moreover, the IC50 result against Cytochrome P450 1A2 and at Cytochrome P450 3A4 was “Not Active” throughout. Besides, the inhibition constant (Ki) entry on Cytochrome P450 2C19, on Cytochrome P450 2D6, on Cytochrome P450 1A2 and on Cytochrome P450 3A4 was “Not Active” throughout.
For the compound `O=C1CC[C@@]2(O)[C@H]3Cc4ccc(O)c5c4[C@@]2(CCN3CC2CC2)[C@H]1O5` [NALTREXONE], the concentration for half-maximal inhibition (IC50) result (at Progesterone receptor; on D(1A) dopamine receptor; against Glucocorticoid receptor; in data set [1]; at Cytochrome P450 2C19; against Cytochrome P450 1A2) was “Not Active” throughout. Also, the IC50 entry at Cytochrome P450 3A4 is recorded as “Not Active”. Besides, the Ki result at Cytochrome P450 2C19, at Cytochrome P450 1A2 and at Cytochrome P450 3A4 was “Not Active” in each case.
`C=CCc1ccc2c(c1)OCO2` [SAFROLE]: the IC50 result (at Progesterone receptor; at D(1A) dopamine receptor; on Glucocorticoid receptor; in data set [1]; against Cytochrome P450 2C19; against Cytochrome P450 2D6) was “Not Active” in each case. In addition, on Cytochrome P450 3A4, the half-maximal inhibitory concentration (IC50) result is given as “Not Active”. In addition, the Ki result on Cytochrome P450 2C19, at Cytochrome P450 2D6 and on Cytochrome P450 3A4 was “Not Active” each time.
For `O=[As][O-].[Na+]` [SODIUM ARSENITE], the IC50 result (at Progesterone receptor; at D(1A) dopamine receptor; against Glucocorticoid receptor; in data set [1]; at Cytochrome P450 2C19; at Cytochrome P450 2D6) was “Not Active” each time. The IC50 entry against Cytochrome P450 1A2 and against Cytochrome P450 3A4 was “Not Active” each time. Moreover, the Ki entry at Cytochrome P450 2C19, on Cytochrome P450 2D6, at Cytochrome P450 1A2 and at Cytochrome P450 3A4 was “Not Active” in each case.
Regarding `O=C(OC[C@H]1O[C@@H](OC(=O)c2cc(O)c(O)c(OC(=O)c3cc(O)c(O)c(O)c3)c2)[C@H](OC(=O)c2cc(O)c(O)c(OC(=O)c3cc(O)c(O)c(O)c3)c2)[C@@H](OC(=O)c2cc(O)c(O)c(OC(=O)c3cc(O)c(O)c(O)c3)c2)[C@@H]1OC(=O)c1cc(O)c(O)c(OC(=O)c2cc(O)c(O)c(O)c2)c1)c1cc(O)c(O)c(OC(=O)c2cc(O)c(O)c(O)c2)c1` [TANNIC ACID], the IC50 result (on Progesterone receptor; on D(1A) dopamine receptor; on Glucocorticoid receptor; in data set [1]; on Cytochrome P450 2C19; on Cytochrome P450 2D6) was “Not Active” each time. Further, the half-maximal inhibitory concentration (IC50) result against Cytochrome P450 3A4 was “Not Active”. The Ki entry on Cytochrome P450 2C19, at Cytochrome P450 2D6 and on Cytochrome P450 3A4 was “Not Active” each time.
As for `CCOC(=O)C1=C(C)NC(C)=C(C(=O)OCC)C1c1ccccc1/C=C/C(=O)OC(C)(C)C` [LACIDIPINE], the half-inhibitory concentration (IC50) result (on Progesterone receptor; on D(1A) dopamine receptor; at Glucocorticoid receptor; in data set [1]; against Cytochrome P450 2D6; on Cytochrome P450 1A2) was “Not Active” each time. Besides, the inhibition constant (Ki) entry at Cytochrome P450 2D6 and at Cytochrome P450 1A2 was “Not Active” in each case.
Regarding `CC[C@@]1(O)C(=O)OCc2c1cc1n(c2=O)Cc2cc3c(CN(C)C)c(O)ccc3nc2-1` [TOPOTECAN], the IC50 result (on Progesterone receptor; at D(1A) dopamine receptor; against Glucocorticoid receptor; in data set [1]; on Cytochrome P450 2C19; against Cytochrome P450 2D6) was “Not Active” each time. Also, on Cytochrome P450 1A2, the 50% inhibitory concentration (IC50) result is given as “Not Active”. Besides, the Ki result at Cytochrome P450 2C19, on Cytochrome P450 2D6 and on Cytochrome P450 1A2 was “Not Active” throughout.
